Patent publication US20100076015A1, “Aminopyridine Derivatives” (VANTIA LIMITED, priority 2008, published 2010)
pIC50: −log10 of the molar value.

The compounds below were run against T1, Human KLK1 (Homo sapiens, UniProt P06870) (assay: Determination of the IC50 for KLK1 (fluorogenic substrate H-DVal-Leu-Arg-AFC)). Details: 37° C.
T1 construct: purchased Callbiochem (Calbiochem)
Assay type: biochemical
Method in brief: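 Human KLK1 incubated at 37 °C with fluorogenic substrate H-DVal-Leu-Arg-AFC and a range of test compound concentrations. Residual activity was taken as initial reaction rate from absorbance change at 410 nm, and the IC50 derived from it.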

T1 sequence (P06870 25-262): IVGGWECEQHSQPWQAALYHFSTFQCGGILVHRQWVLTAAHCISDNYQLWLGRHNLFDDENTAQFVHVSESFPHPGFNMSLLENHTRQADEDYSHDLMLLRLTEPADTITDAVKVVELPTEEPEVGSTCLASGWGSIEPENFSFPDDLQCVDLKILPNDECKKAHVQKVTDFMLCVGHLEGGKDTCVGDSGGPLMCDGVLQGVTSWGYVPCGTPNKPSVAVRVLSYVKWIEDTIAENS

CN(CC(=O)N[C@@H](Cc1ccc(F)c(F)c1)C(=O)NCc1ccc(N)nc1)Cc1ccccc1Cl [Example 165, (S)—N-(6-Amino-pyridin-3-ylmethyl)-2-{2-[(2-chloro-benzyl)-methyl-amino]-acetylamino}-3-(3,4-difluoro-phenyl)-propionamide] and CCN(C)[C@@H](CO)C(=O)N[C@@H](Cc1ccc(F)c(F)c1)C(=O)NCc1ccc(N)nc1 [Example 361, (S)—N-[(S)-1-[(6-Amino-pyridin-3-ylmethyl)-carbamoyl]-2-(3,4-difluoro-phenyl)-ethyl]-2-(ethyl-methyl-amino)-3-hydroxy-propionamide] are within 0.2 log units of each other in pIC50: 7.08 for the first, 7.25 for the second.

First: CCC(C)[C@@H](NC)C(=O)N[C@@H](Cc1ccc(F)c(F)c1)C(=O)NCc1ccc(N)nc1 (single isomer, unassigned) [Example 53]
Second: CC(C)N(C(C)C)[C@@H](C)C(=O)N[C@@H](Cc1ccc(F)c(F)c1)C(=O)NCc1ccc(N)nc1 [Example 350, (S)—N-[(S)-1-[(6-Amino-pyridin-3-ylmethyl)-carbamoyl]-2-(3,4-difluoro-phenyl)-ethyl]-2-diisopropylamino-propionamide]
The pIC50 of the first is 0.40 log units higher: 7.95 for the first, 7.55 for the second.

Going from Nc1ccc(CNC(=O)[C@H](Cc2ccc(F)c(F)c2)NC(=O)[C@H]2CCCCN2)cn1 [Example 74, (R)-Piperidine-2-carboxylic acid [(S)-1-[(6-amino-pyridin-3-ylmethyl)-carbamoyl]-2-(3,4-difluoro-phenyl)-ethyl]-amide] to Nc1ccc(CNC(=O)[C@H](Cc2cccc(Cl)c2)NC(=O)[C@H]2CCCCN2)cn1 [Example 77, (R)-Piperidine-2-carboxylic acid [(S)-1-[(6-amino-pyridin-3-ylmethyl)-carbamoyl]-2-(3-chloro-phenyl)-ethyl]-amide], the pIC50 falls from 8.74 to 8.54 (0.20 log units). The first is the more potent here.

Going from Cc1cc(C(=O)N[C@@H](Cc2ccc(F)cc2)C(=O)NCc2ccc(N)nc2)n(C)n1 [Example 291, 2,5-Dimethyl-2H-pyrazole-3-carboxylic acid [(S)-1-[(6-amino-pyridin-3-ylmethyl)-carbamoyl]-2-(4-fluoro-phenyl)-ethyl]-amide] to CN[C@@H](C)C(=O)N[C@@H](Cc1ccc(F)cc1)C(=O)NCc1ccc(N)nc1 [Example 88, (S)—N-[(S)-1-[(6-Amino-pyridin-3-ylmethyl)-carbamoyl]-2-(4-fluoro-phenyl)-ethyl]-2-methylamino-propionamide], the pIC50 rises from 6.78 to 8.17 (1.39 log units).

COc1ccc2[nH]c(C(=O)N[C@@H](Cc3ccc(F)c(F)c3)C(=O)NCc3ccc(N)nc3)cc2c1 [Example 327, 5-Methoxy-1H-indole-2-carboxylic acid [(S)-1-[(6-amino-pyridin-3-ylmethyl)-carbamoyl]-2-(3,4-difluoro-phenyl)-ethyl]-amide] and COc1ccc2[nH]c(C(=O)N[C@@H](Cc3ccc(F)cc3)C(=O)NCc3ccc(N)nc3)cc2c1 [Example 332, 5-Methoxy-1H-indole-2-carboxylic acid [(S)-1-[(6-amino-pyridin-3-ylmethyl)-carbamoyl]-2-(4-fluoro-phenyl)-ethyl]-amide] are within 0.2 log units of each other in pIC50: 7.75 for the first, 7.67 for the second.

First: CC(C)CN(CC(=O)N[C@@H](Cc1ccc(F)c(F)c1)C(=O)NCc1ccc(N)nc1)CC(C)C [Example 159, (S)—N-(6-Amino-pyridin-3-ylmethyl)-3-(3,4-difluoro-phenyl)-2-(2-diisobutylamino-acetylamino)-propionamide]
Second: CC(C)[C@H](C(=O)N[C@@H](Cc1ccc(Cl)c(Cl)c1)C(=O)NCc1ccc(N)nc1)N(C)C [Example 399, (R)—N-[(S)-1-[(6-Amino-pyridin-3-ylmethyl)-carbamoyl]-2-(3,4-dichloro-phenyl)-ethyl]-2-dimethylamino-3-methyl-butyramide]
The pIC50 of the first is 2.35 log units lower: 6.78 for the first, 9.13 for the second.

Compared with Cc1cc(C)c(C(=O)N[C@@H](Cc2ccc(O)cc2)C(=O)NCc2ccc(N)nc2)[nH]1 [Example 247, 3,5-Dimethyl-1H-pyrrole-2-carboxylic acid [(S)-1-[(6-amino-pyridin-3-ylmethyl)-carbamoyl]-2-(4-hydroxy-phenyl)-ethyl]-amide], Nc1ccc(CNC(=O)[C@H](Cc2ccc(F)cc2)NC(=O)c2cc3ccccc3[nH]2)cn1 [Example 330, 1H-Indole-2-carboxylic acid [(S)-1-[(6-amino-pyridin-3-ylmethyl)-carbamoyl]-2-(4-fluoro-phenyl)-ethyl]-amide] is 0.93 log units higher in pIC50: 6.70 for the first, 7.63 for the second.

First: CC1CCCC(C)N1CC(=O)N[C@@H](Cc1ccc(F)cc1)C(=O)NCc1ccc(N)nc1 (stereo partly drawn) [Example 378, (S)—N-(6-Amino-pyridin-3-ylmethyl)-2-[2-(2,6-dimethyl-piperidin-1-yl)-acetylamino]-3-(4-fluoro-phenyl)-propionamide]
Second: CC1CCCC(C)N1CC(=O)N[C@@H](CC1CCCCC1)C(=O)NCc1ccc(N)nc1 (stereo partly drawn) [Example 392, (S)—N-(6-Amino-pyridin-3-ylmethyl)-3-cyclohexyl-2-[2-(2,6-dimethyl-piperidin-1-yl)-acetylamino]-propionamide]
The pIC50 of the first is 1.27 log units higher: 8.60 for the first, 7.33 for the second.

Going from CCN(C)[C@@H](CO)C(=O)N[C@@H](CC1CCCCC1)C(=O)NCc1ccc(N)nc1 [Example 387, (S)—N-{(S)-1-[(6-Amino-pyridin-3-ylmethyl)-carbamoyl]-2-cyclohexyl-ethyl}-2-(ethyl-methyl-amino)-3-hydroxy-propionamide] to CCC(C)[C@@H](NC)C(=O)N[C@@H](CC1CCCCC1)C(=O)NCc1ccc(N)nc1 (stereo partly drawn) [Example 21, (R)-3-Methyl-2-methylamino-pentanoic acid {(S)-1-[(6-amino-pyridin-3-ylmethyl)-carbamoyl]-2-cyclohexyl-ethyl}-amide], the pIC50 rises from 6.77 to 7.64 (0.87 log units). The second is the more potent here.

Going from COc1ccc2[nH]c(C(=O)N[C@@H](Cc3ccc(Cl)c(Cl)c3)C(=O)NCc3ccc(N)nc3C)cc2c1 [Example 321, 5-Methoxy-1H-indole-2-carboxylic acid [(S)-1-[(6-amino-2-methyl-pyridin-3-ylmethyl)-carbamoyl]-2-(3,4-dichloro-phenyl)-ethyl]-amide] to Cc1cc(C)c(C(=O)N[C@@H](Cc2ccc(Cl)c(Cl)c2)C(=O)NCc2ccc(N)nc2C)[nH]1 [Example 280, 3,5-Dimethyl-1H-pyrrole-2-carboxylic acid [(S)-1-[(6-amino-2-methyl-pyridin-3-ylmethyl)-carbamoyl]-2-(3,4-dichloro-phenyl)-ethyl]-amide], the pIC50 rises from 7.07 to 8.72 (1.65 log units).

Compared with NCC(=O)N[C@@H](C(=O)NCc1ccc(N)nc1)C(C1CCCCC1)C1CCCCC1 [Example 220, (R)-2-(2-Amino-acetylamino)-N-(6-amino-pyridin-3-ylmethyl)-3,3-dicyclohexyl-propionamide], CC(C)N(C)[C@@H](C)C(=O)N[C@@H](C(=O)NCc1ccc(N)nc1)C(C1CCCCC1)C1CCCCC1 [Example 433, (S)—N-{(R)-1-[(6-Amino-pyridin-3-ylmethyl)-carbamoyl]-2,2-dicyclohexyl-ethyl}-2-(isopropyl-methyl-amino)-propionamide] is 0.26 log units lower in pIC50: 7.26 for the first, 7.00 for the second. The first is the more potent here.

Compared with Nc1ccc(CNC(=O)[C@H](Cc2cccc3ccccc23)NC(=O)c2cc3ccccc3[nH]2)cn1 [Example 298, 1H-Indole-2-carboxylic acid {(S)-1-[(6-amino-pyridin-3-ylmethyl)-carbamoyl]-2-naphthalen-1-yl-ethyl}-amide], Nc1ccc(CNC(=O)[C@H](Cc2ccc(Cl)c(Cl)c2)NC(=O)[C@@H](N)c2ccccc2)cn1 [Example 58, (S)-2-((S)-2-Amino-2-phenyl-acetylamino)-N-(6-amino-pyridin-3-ylmethyl)-3-(3,4-dichloro-phenyl)-propionamide] is 0.72 log units lower in pIC50: 8.03 for the first, 7.31 for the second. The first is the more potent here.

Compared with CCN(CC)[C@@H](C)C(=O)N[C@@H](Cc1cccc(C(F)(F)F)c1)C(=O)NCc1ccc(N)nc1 [Example 418, (S)—N-[(S)-1-[(6-Amino-pyridin-3-ylmethyl)-carbamoyl]-2-(3-trifluoromethyl-phenyl)-ethyl]-2-diethylamino-propionamide], Nc1ccc(CNC(=O)[C@H](Cc2cccc(C(F)(F)F)c2)NC(=O)[C@H](N)Cc2ccc(Cl)cc2)cn1 [Example 70, (R)-2-Amino-N-[(S)-1-[(6-amino-pyridin-3-ylmethyl)-carbamoyl]-2-(3-trifluoromethyl-phenyl)-ethyl]-3-(4-chloro-phenyl)-propionamide] is 0.26 log units higher in pIC50: 8.70 for the first, 8.96 for the second. The second is the more potent here.

Going from Cc1cccc(C[C@H](NC(=O)[C@H](C)N(C)C(C)C)C(=O)NCc2ccc(N)nc2)c1 [Example 414, (S)—N-{(S)-1-[(6-Amino-pyridin-3-ylmethyl)-carbamoyl]-2-m-tolyl-ethyl}-2-(isopropyl-methyl-amino)-propionamide] to CCCN(C)[C@@H](C)C(=O)N[C@@H](Cc1ccc(F)cc1)C(=O)NCc1ccc(N)nc1 [Example 368, (S)—N-[(S)-1-[(6-Amino-pyridin-3-ylmethyl)-carbamoyl]-2-(4-fluoro-phenyl)-ethyl]-2-(methyl-propyl-amino)-propionamide], the pIC50 falls from 9.11 to 7.71 (1.40 log units).

Compared with COc1cccc(C[C@H](NC(=O)[C@H]2CCCN2C(C)C)C(=O)NCc2ccc(N)nc2)c1 [Example 124, (R)-1-Isopropyl-pyrrolidine-2-carboxylic acid [(S)-1-[(6-amino-pyridin-3-ylmethyl)-carbamoyl]-2-(3-methoxy-phenyl)-ethyl]-amide], CN1CCC[C@@H]1C(=O)N[C@@H](Cc1cc(F)cc(F)c1)C(=O)NCc1ccc(N)nc1 [Example 96, (R)-1-Methyl-pyrrolidine-2-carboxylic acid [(S)-1-[(6-amino-pyridin-3-ylmethyl)-carbamoyl]-2-(3,5-difluoro-phenyl)-ethyl]-amide] is 0.83 log units higher in pIC50: 7.43 for the first, 8.26 for the second. The second is the more potent here.

First: CN[C@@H](Cc1ccccc1)C(=O)N[C@H](Cc1ccc(Cl)c(Cl)c1)C(=O)NCc1ccc(N)nc1C [Example 193, (S)—N-[(R)-1-[(6-Amino-2-methyl-pyridin-3-ylmethyl)-carbamoyl]-2-(3,4-dichloro-phenyl)-ethyl]-2-methylamino-3-phenyl-propionamide]
Second: CCC(C)[C@@H](N)C(=O)N[C@@H](CC1CCCC2CCCCC21)C(=O)NCc1ccc(N)nc1C (stereo partly drawn) [Example 187, (R)-2-Amino-3-methyl-pentanoic acid [(S)-1-[(6-amino-2-methyl-pyridin-3-ylmethyl)-carbamoyl]-2-(decahydro-naphthalen-1-yl)-ethyl]-amide]
The pIC50 of the first is 1.19 log units lower: 7.96 for the first, 9.15 for the second. The second is the more potent here.
